From patent US20200037600A1, “MESOIONIC IMIDAZOPYRIDINES AS INSECTICIDES” (Bayer Aktiengesellschaft, priority 2017, published 2020)

Legend:
[1] = tested on: Ctenocephalides felis; assay: Ctenocephalides felis oral test; assay type: in vivo; details: application rate 100 ppm in citrated cattle blood; adult cat fleas; after 2 days
Method: Ctenocephalides felis—Oral Test
(§1) Solvent: dimethyl sulfoxide
To produce a suitable active compound formulation, 10 mg of active compound are mixed with 0.5 ml of dimethyl sulfoxide. Dilution with citrated cattle blood gives the desired concentration.
About 20 unfed adult cat fleas (Ctenocephalides felis) are placed into a chamber which is closed at the top and bottom with gauze. A metal cylinder whose bottom end is closed with parafilm is placed onto the chamber. The cylinder contains the blood/active compound formulation, which can be imbibed by the fleas through the parafilm membrane.
After 2 days, the kill in % is determined. 100% means that all of the fleas have been killed; 0% means that none of the fleas have been killed.

[2] = tested on: Lucilia cuprina; assay: Lucilia cuprina test; assay type: in vivo; details: application rate 100 ppm; L1 larvae; after 2 days
Method: as §1
(§2) To produce a suitable active compound formulation, 10 mg of active compound are mixed with 0.5 ml of dimethyl sulfoxide, and the concentrate is diluted with water to the desired concentration.
About 20 L1 larvae of the Australian sheep blowfly (Lucilia cuprina) are transferred into a test vessel containing minced horsemeat and the active compound formulation of the desired concentration.
After 2 days, the kill in % is determined. 100% means that all the larvae have been killed; 0% means that no larvae have been killed.

[3] = tested on: Diabrotica balteata; assay: Diabrotica balteata spray test; assay type: in vivo; details: application rate 160 μg/well, beetle larvae on germinated wheat grains, after 7 days; for pest or weed control at 160 µg/disc, 160 µg/well: Diabrotica balteata, 168 h, read-out: efficacy
Method: Diabrotica balteata—Spray Test
(§3) Solvent: 78 parts by weight of acetone • • 1.5 parts by weight of dimethylformamide
(§4) Emulsifier: alkylaryl polyglycol ether
(§5) To produce a suitable active compound formulation, 1 part by weight of active compound is dissolved with the specified parts by weight of solvent and made up to the desired concentration with water containing an emulsifier concentration of 1000 ppm. To produce further test concentrations, the formulation is diluted with emulsifier-containing water.
Pre-swollen wheat grains (Triticum aestivum) are incubated in a multiwell plate filled with agar and a little water for one day (5 seed grains per well). The germinated wheat grains are sprayed with an active compound preparation of the desired concentration. Subsequently, each cavity is infected with 10-20 beetle larvae of Diabrotica balteata.
After 7 days, the efficacy in % is determined. 100% means that all maize plants have grown as in the untreated, uninfected control; 0% means that no maize plant has grown.

[4] = tested on: Myzus persicae; assay: Myzus persicae oral test; assay type: in vivo; details: after 5 days; for pest or weed control at 4 ppm: Myzus persicae, po, 120 h, read-out: efficacy
Method: Solvent: 100 parts by weight of acetone
To produce a suitable active compound formulation, 1 part by weight of active compound is dissolved with the stated parts by weight of solvent and made up to the desired concentration with water.
50 μl of the active compound formulation are transferred into microtitre plates and made up to a final volume of 200 μl with 150 μl of IPL41 insect medium (33%+15% sugar). Subsequently, the plates are sealed with parafilm, which a mixed population of green peach aphids (Myzus persicae) within a second microtitre plate is able to puncture and imbibe the solution.
(§6) After 5 days, the efficacy in % is determined. 100% means that all the aphids have been killed; 0% means that no aphids have been killed.

[5] = tested on: Musca domestica; assay: Musca domestica test; assay type: in vivo; details: application rate 100 ppm; adult houseflies; after 2 days
Method: as §1, §2
Vessels containing a sponge treated with sugar solution and the active compound formulation of the desired concentration are populated with 10 adult houseflies (Musca domestica).
After 2 days, the kill in % is determined. 100% means that all of the flies have been killed; 0% means that none of the flies have been killed.

[6] = tested on: Ctenocephalides felis; assay: Ctenocephalides felis in vitro contact test with adult cat fleas; assay type: in vivo; details: application rate 5 μg/cm^2 (=500 g/ha), after 48 h
Method: Ctenocephalides felis—In Vitro Contact Tests with Adult Cat Fleas
For the coating of the test tubes, 9 mg of active compound are first dissolved in 1 ml of acetone p.a. and then diluted to the desired concentration with acetone p.a. 250 μl of the solution are distributed homogeneously on the inner walls and the base of a 25 ml glass tube by turning and rocking on an orbital shaker (rocking rotation at 30 rpm for 2 h). With 900 ppm of active compound solution and internal surface area 44.7 cm^2, given homogeneous distribution, an area-based dose of 5 μg/cm^2 is achieved.
After the solvent has evaporated off, the tubes are populated with 5-10 adult cat fleas (Ctenocephalides felis), sealed with a perforated plastic lid and incubated in a horizontal position at room temperature and ambient humidity. After 48 h, efficacy is determined. To this end, the tubes are stood upright and the fleas are knocked to the base of the tube. Fleas which remain motionless at the base or move in an uncoordinated manner are considered to be dead or moribund.
100% efficacy means that all the fleas were dead or moribund. 0% efficacy means that no fleas were harmed.

[7] = tested on: Myzus persicae; assay: Myzus persicae spray test; assay type: in vivo; details: application rate 500 g/ha, Chinese cabbage leaf discs, after 5 days; for pest or weed control at 500 g/ha: Myzus persicae, foliar, 120 h, read-out: efficacy
Method: Myzus persicae—Spray Test
as §3, §4, §5
Discs of Chinese cabbage leaves (Brassica pekinensis) infested by all stages of the green peach aphid (Myzus persicae) are sprayed with an active compound formulation of the desired concentration.
as §6

[8] = log P by HPLC (EEC directive 79/831 Annex V.A8); assay type: physicochemical
Method: The log P values reported in the tables and preparation examples above were determined in accordance with EEC directive 79/831 Annex V.A8 by HPLC (High Performance Liquid Chromatography) using a reversed-phase column (C18). Temperature 43° C. The calibration is effected with unbranched alkan-2-ones (having 3 to 16 carbon atoms), for which the log P values are known.

[9] = tested on: Spodoptera frugiperda; assay: Spodoptera frugiperda spray test; assay type: in vivo; details: application rate 500 g/ha; caterpillars on maize leaf discs; after 7 days
Method: Spodoptera frugiperda—Spray Test
(§7) Solvent: 78.0 parts by weight of acetone • • 1.5 parts by weight of dimethylformamide
as §4, §5
Leaf discs of maize (Zea mays) are sprayed with an active compound formulation of the desired concentration and, after drying, populated with caterpillars of the fall armyworm (Spodoptera frugiperda).
After 7 days, the efficacy in % is determined. 100% means that all the caterpillars have been killed; 0% means that no caterpillar has been killed.

[10] = tested on: Tetranychus urticae; assay: Tetranychus urticae spray test, OP-resistant; assay type: in vivo; details: application rate 500 g/ha, bean leaf discs, after 6 days
Method: Tetranychus urticae—Spray Test, OP-Resistant
as §7, §4, §5
Discs of bean leaves (Phaseolus vulgaris) infested by all stages of the red spider mite (Tetranychus urticae) are sprayed with an active compound formulation of the desired concentration.
After 6 days, the efficacy in % is determined. 100% means that all the spider mites have been killed; 0% means that no spider mites have been killed.

[11] = tested on: Phaedon cochleariae; assay: Phaedon cochleariae spray test; assay type: in vivo; details: foliar, 168 h, application rate 500 g/ha, larvae on Chinese cabbage leaf discs, after 7 days, read-out: efficacy
Method: Phaedon cochleariae—Spray Test
as §7, §4, §5
Discs of Chinese cabbage leaves (Brassica pekinensis) are sprayed with an active compound formulation of the desired concentration and, after drying, populated with larvae of the mustard beetle (Phaedon cochleariae).
After 7 days, the efficacy in % is determined. 100% means that all the beetle larvae have been killed; 0% means that no beetle larvae have been killed.

Row | Structure (SMILES) | efficacy ([4]; application rate 4 ppm) | efficacy (kill in %) [5] | efficacy [6] | efficacy [7] | efficacy [9] | pest or weed control at 4 ppm ([4]; application rate 4 ppm) | efficacy [10] | other results
1 | O=C(c1c([O-])[n+]2ccccc2n1Cc1cnc(Cl)s1)C(F)(F)F [Example I-007] | 100% | 90% | 100% | 100% | – | – | – | efficacy (kill in %) [1]: 95%; efficacy (kill in %) [2]: 85%; efficacy [3]: 100%; efficacy ([4]; application rate 20 ppm): 100%
2 | O=C(c1c([O-])[n+]2ccccc2n1Cc1cnc(Cl)s1)C(Cl)(Cl)Cl [Example I-011, 1-[(2-Chlorothiazol-5-yl)methyl]-2-(2,2,2-trichloroacetyl)imidazo[1,2-a]pyridin-4-ium-3-olate] | – | – | – | – | 100% | 100% | – | chromatographic logP [8]: 2.44; pest or weed control at 160 µg/disc, 160 µg/well [3]: 100%; pest or weed control at 500 g/ha [7]: 90%
3 | O=C(c1ccccc1)c1c([O-])[n+]2ccccc2n1Cc1cnc(Cl)s1 [Example I-013] | 100% | 90% | 100% | 100% | – | – | – | efficacy [3]: 80%; efficacy ([4]; application rate 20 ppm): 100%
4 | O=Cc1c([O-])[n+]2ccccc2n1Cc1cnc(Cl)s1 [Example I-015, 1-[(2-Chlorothiazol-5-yl)methyl]-2-formylimidazo[1,2-a]pyridin-4-ium-3-olate] | – | – | 100% | – | – | 100% | – | chromatographic logP [8]: 1.01; pest or weed control at 160 µg/disc, 160 µg/well [3]: 100%; pest or weed control at 500 g/ha [7]: 90%
5 | O=C(c1c([O-])[n+]2ccccc2n1Cc1cnc(Cl)s1)C(F)(F)Cl [Example I-019] | 100% | 80% | 100% | 100% | 100% | – | – | efficacy (kill in %) [1]: 95%; efficacy (kill in %) [2]: 95%; efficacy [3]: 100%
6 | CCOC(=O)C(=O)c1c([O-])[n+]2cccc(C)c2n1Cc1cnc(Cl)s1 [Example I-033] | – | 100% | 100% | – | – | 100% | – | efficacy (kill in %) [1]: 95%; pest or weed control at 160 µg/disc, 160 µg/well [3]: 100%; pest or weed control at 500 g/ha [7]: 90%
7 | CCC(C)OC(=O)C(=O)c1c([O-])[n+]2ccccc2n1Cc1cnc(Cl)s1 (stereo not drawn) [Example I-037] | 100% | 100% | – | 100% | – | – | 90% | efficacy (kill in %) [2]: 95%; efficacy [3]: 100%
8 | O=C(OCC1CCC1)C(=O)c1c([O-])[n+]2ccccc2n1Cc1cnc(Cl)s1 [Example I-039] | 100% | – | – | 90% | – | – | 90% | –
9 | CCN(CC)C(=O)C(=O)c1c([O-])[n+]2ccccc2n1Cc1cnc(Cl)s1 [Example I-040] | – | – | – | 90% | – | – | 100% | –
10 | CN(C)C(=O)C(=O)c1c([O-])[n+]2ccccc2n1Cc1cnc(Cl)s1 [Example I-041] | – | – | – | – | – | – | 90% | –
11 | Cc1ccc[n+]2c([O-])c(C(=O)C(=O)OCC3CCC3)n(Cc3cnc(Cl)s3)c12 [Example I-046] | – | – | – | – | 83% | 100% | – | pest or weed control at 500 g/ha [11]: 100%; pest or weed control at 160 µg/disc, 160 µg/well [3]: 100%; pest or weed control at 500 g/ha [7]: 90%
12 | COCCOC(=O)C(=O)c1c([O-])[n+]2ccccc2n1Cc1cnc(Cl)s1 [Example I-050] | 100% | – | – | 100% | – | – | 90% | –
13 | Cc1ccc[n+]2c([O-])c(C(=O)C(F)(F)Cl)n(Cc3cnc(Cl)s3)c12 [Example I-060] | – | – | – | – | 100% | – | – | pest or weed control at 500 g/ha [11]: 100%
14 | Cc1ccc[n+]2c([O-])c(C(=O)C(F)F)n(Cc3cnc(Cl)s3)c12 [Example I-061] | – | – | – | – | 100% | 100% | – | pest or weed control at 500 g/ha [11]: 100%
15 | Cc1ccc[n+]2c([O-])c(C(=O)C(F)(F)C(F)F)n(Cc3cnc(Cl)s3)c12 [Example I-063] | – | – | – | – | 100% | 100% | – | pest or weed control at 500 g/ha [11]: 100%
